The structures appear in SMILES notation.

These results are taken from patent US12037375B2, “Protein variant and composition for treating neurodegenerative disease using the same” (KOREA UNIVERSITY RESEARCH AND BUSINESS FOUNDATION, priority 2021, dated 2024).

In the data set the test system is SH-SY-5Y neuroblastoma cells. The data set is described as follows: Cell viability by MTT assay. The data set is classed as cell-based. The conditions noted are these: FIG. 4. A general note: Tetrazolium dyes change colour on reduction, which living cells bring about.

Method: SH-SY-5Y neuroblastoma cells were purchased from the Korean Cell Line Bank (Seoul, South Korea) and incubated in a 1:1 mixture of Dulbecco's modified eagle medium/F-12 nutrient mixture ham (DMEM/F-12; WelGENE) supplemented with 10% fetal bovine serum (FBS; Capricorn Scientific GmbH, Ebsdorfergrund, Germany) and 1% antibiotic (10,000 U/mL penicillin G, 10,000 μg/mL streptomycin and 25 μg/mL amphotericin B; Hyclone, Logan, UT, USA). The antibiotic was sterilized through a 0.2 μm filter before use and the cells were incubated at 37° C. under humid conditions including 5% CO2.
Specifically, 15,000 cells were grown in each well of a 96-well plate and incubated for 24 hours. […] Then, the MTT solution was added to the medium and incubated at 37° C. for 3 hours to form the MTT-formazan product. The amount of the product was quantified as the extent of absorption at a wavelength of 540 nm.
Each test was conducted on three samples at a time and the entire test was repeated three times to ensure reproducibility.
Specifically, 15,000 cultured neuroblastoma were added with each of 1 uM of a monomer protein and 1 uM of a fibrous protein, and incubated for 2 days, and then the change in cytotoxicity was measured using MTT reagent.

As for `CC[C@H](C)[C@H](NC(=O)[C@H](C)NC(=O)CNC(=O)[C@H](CCCCN)NC(=O)[C@H](CC(N)=O)NC(=O)[C@H](CO)NC(=O)CNC(=O)[C@@H](NC(=O)[C@H](CC(=O)O)NC(=O)[C@H](CCC(=O)O)NC(=O)[C@H](C)NC(=O)[C@H](Cc1ccccc1)NC(=O)[C@H](CC(N)=O)NC(=O)[C@@H](NC(=O)[C@H](CC(C)C)NC(=O)[C@H](CCCCN)NC(=O)[C@H](CCC(N)=O)NC(=O)[C@H](Cc1c[nH]cn1)NC(=O)[C@H](Cc1c[nH]cn1)NC(=O)[C@@H](NC(=O)[C@H](CCC(=O)O)NC(=O)[C@H](Cc1ccc(O)cc1)NC(=O)CNC(=O)[C@H](CO)NC(=O)[C@H](CC(=O)O)NC(=O)[C@H](Cc1c[nH]cn1)NC(=O)[C@H](CCCNC(=N)N)NC(=O)[C@H](Cc1ccccc1)NC(=O)[C@H](CCC(=O)O)NC(=O)[C@H](C)NC(=O)[C@@H](N)CC(=O)O)C(C)C)C(C)C)C(C)C)C(=O)N[C@@H](CC(N)=O)C(=O)NCC(=O)N[C@@H](CC(N)=O)C(=O)N[C@@H](CCSC)C(=O)N[C@H](C(=O)NCC(=O)NCC(=O)N[C@H](C(=O)N[C@H](C(=O)N[C@H](C(=O)N[C@@H](CC(N)=O)C(=O)O)[C@@H](C)CC)C(C)C)C(C)C)C(C)C`, the cytotoxicity result is recorded as “reduced cytotoxicity”.
